Laboratory results taken from patent publication US6737383B1, “Herbicidal oxadiazolidines” (priority 1999, dated 2004).

Tests used:
bedstraw = assay: Test B pre/postemergence bedstraw; assay type: in vivo, Galium aparine
How it was run: (§1)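 Response is a visual 0-to-10 score relative to untreated plants, where 0 means no effect and 10 means complete control, taken twelve to sixteen days after application. Treatments went onto soil at planting and onto foliage of 1- to 4-leaf plants, using a surfactant-containing non-phytotoxic solvent.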

blackgrass = assay: Test B pre/postemergence blackgrass; assay type: in vivo, Alopecurus myosuroides
How it was run: as §1

surinam grass = assay: Test B pre/postemergence surinam grass; assay type: in vivo, Brachiaria decumbens
How it was run: as §1

corn = assay: Test B pre/postemergence corn; assay type: in vivo, Zea mays
How it was run: as §1

giant foxtail = assay: Test B pre/postemergence giant foxtail; assay type: in vivo, Setaria faberii
How it was run: as §1

morningglory = assay: Test B pre/postemergence morningglory; assay type: in vivo, Ipomoea hederacea
How it was run: as §1

pigweed = assay: Test B pre/postemergence pigweed; assay type: in vivo, Amaranthus retroflexus
How it was run: as §1

rape = assay: Test B pre/postemergence rape; assay type: in vivo, Brassica napus
How it was run: as §1

soybean = assay: Test B pre/postemergence soybean; assay type: in vivo, Glycine max
How it was run: as §1

sugar beet = assay: Test B pre/postemergence sugar beet; assay type: in vivo, Beta vulgaris
How it was run: as §1

velvetleaf = assay: Test B pre/postemergence velvetleaf; assay type: in vivo, Abutilon theophrasti
How it was run: as §1

purple nutsedge = assay: Test B pre/postemergence purple nutsedge; assay type: in vivo, Cyperus rotundus
How it was run: as §1

rice = assay: Test B flood test rice; assay type: in vivo, Oryza sativa
How it was run: (§2)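 Read-out is a visual response score from 0 (no effect) to 10 (complete control), assigned by comparison with untreated controls. Treatment was applied at the 2-leaf stage, and plants stayed in the greenhouse for twelve to sixteen days before scoring.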

smallflower flatsedge = assay: Test B flood test smallflower flatsedge; assay type: in vivo, Cyperus difformis
How it was run: as §2

duck salad = assay: Test B flood test duck salad; assay type: in vivo, Heteranthera limosa
How it was run: as §2

bamyardgrass = assay: Test B flood test barnyardgrass; assay type: in vivo, Echinochloa crus-galli
How it was run: as §2

[1] = Postemergence, Rate 500 g/ha, scale of 0 to 10 where 0 is no effect and 10 is complete control
[2] = Postemergence, Rate 125 g/ha, scale 0 to 10, 0 is no effect, 10 is complete control
[3] = Postemergence, Rate 250 g/ha, scale 0 to 10, 0 is no effect, 10 is complete control
[4] = Preemergence, Rate 62 g/ha, scale 0 to 10 (0 no effect, 10 complete control)
[5] = Preemergence, Rate 125 g/ha, scale of 0 to 10 where 0 is no effect and 10 is complete control
[6] = Preemergence, Rate 250 g/ha, scale of 0 to 10 where 0 is no effect and 10 is complete control
[7] = Preemergence, Rate 500 g/ha, scale 0 to 10, 0 is no effect, 10 is complete control
[8] = Rate 62 g/ha, Postemergence, scale of 0 to 10 where 0 is no effect and 10 is complete control
[9] = Preemergence, Rate 500 g/ha, scale of 0 to 10 where 0 is no effect and 10 is complete control
[10] = Preemergence, Rate 250 g/ha, scale 0 to 10, 0 is no effect, 10 is complete control
[11] = Postemergence section (flood test species), Rate 500 g/ha, scale of 0 to 10 where 0 is no effect and 10 is complete control
[12] = Rate 62 g/ha, Postemergence (flood test species), scale of 0 to 10 where 0 is no effect and 10 is complete control
[13] = flood test species, listed under Postemergence, Rate 250 g/ha, scale 0 to 10, 0 is no effect, 10 is complete control
[14] = Postemergence (flood test), Rate 125 g/ha, scale 0 to 10, 0 is no effect, 10 is complete control
[15] = Rate 62 g/ha, flood test species, Pre-emergence, visual evaluation after twelve to sixteen days
[16] = Rate 125 g/ha, under heading Pre-emergence, flood test species, visual evaluation after twelve to sixteen days
[17] = Rate 250 g/ha, Pre-emergence (flood test species), scale 0 to 10, 0 is no effect, 10 is complete control
[18] = Rate 500 g/ha, Pre-emergence, flood test species, scale 0 to 10 (0 no effect, 10 complete control)

CC(C)N(C(=O)n1oc(=O)n(CCCC(F)(F)F)c1=O)c1ccc(F)cc1 [Compound 398]
5: Redroot pigweed plant response rating (pigweed; [1]) | Plant response rating, Redroot pigweed (pigweed; [5]) | Velvetleaf plant response rating (velvetleaf; [1])
2: Plant response rating, B. signalgrass (surinam grass; [3]) | Plant response rating, B. signalgrass (surinam grass; [5]) | Morningglory plant response rating (morningglory; [8]) | Plant response rating, Redroot pigweed (pigweed; [4]) | Plant response rating, Rape (rape; [3]) | Rape plant response rating (rape; [1]) | Plant response rating, Velvetleaf (velvetleaf; [5])
6: Plant response rating, Blackgrass (blackgrass; [2]) | B. signalgrass plant response rating (surinam grass; [6]) | Soybean plant response rating (soybean; [1]) | Velvetleaf plant response rating (velvetleaf; [10])
9: Bedstraw plant response rating (bedstraw; [1]) | Plant response rating, Blackgrass (blackgrass; [3]) | Blackgrass plant response rating (blackgrass; [1]) | Plant response rating, Giant foxtail (giant foxtail; [3]) | Giant foxtail plant response rating (giant foxtail; [1]) | Sugarbeets plant response rating (sugar beet; [7])
0: Blackgrass plant response rating (blackgrass; [8]) | Plant response rating, B. signalgrass (surinam grass; [2]) | Plant response rating, B. signalgrass (surinam grass; [4]) | B. signalgrass plant response rating (surinam grass; [8]) | Plant response rating, Corn (corn; [2]) | Plant response rating, Corn (corn; [3]) | Corn plant response rating (corn; [1]) | Plant response rating, Corn (corn; [4]) | Plant response rating, Corn (corn; [5]) | Corn plant response rating (corn; [10]) | Corn plant response rating (corn; [8]) | Plant response rating, Morningglory (morningglory; [4]) | Plant response rating, Morningglory (morningglory; [5]) | Morningglory plant response rating (morningglory; [10]) | Morningglory plant response rating (morningglory; [7]) | Redroot pigweed plant response rating (pigweed; [8]) | Plant response rating, Rape (rape; [4]) | Rape plant response rating (rape; [8]) | Plant response rating, Soybean (soybean; [4]) | Plant response rating, Soybean (soybean; [5]) | Soybean plant response rating (soybean; [10]) | Soybean plant response rating (soybean; [7]) | Plant response rating, Sugarbeets (sugar beet; [3]) | Sugarbeets plant response rating (sugar beet; [1]) | Plant response rating, Sugarbeets (sugar beet; [4]) | Sugarbeets plant response rating (sugar beet; [8]) | Plant response rating, Velvetleaf (velvetleaf; [3]) | Plant response rating, Velvetleaf (velvetleaf; [4]) | Velvetleaf plant response rating (velvetleaf; [8]) | Plant response rating, Nutsedge (purple nutsedge; [3]) | Nutsedge plant response rating (purple nutsedge; [1]) | Plant response rating, Nutsedge (purple nutsedge; [4]) | Plant response rating, Nutsedge (purple nutsedge; [5]) | Nutsedge plant response rating (purple nutsedge; [10]) | Nutsedge plant response rating (purple nutsedge; [7]) | Nutsedge plant response rating (purple nutsedge; [8]) | Rice plant response rating (rice; [11]) | Rice plant response rating (rice; [12]) | Plant response rating, Rice (rice; [13]) | S. Flatsedge plant response rating (smallflower flatsedge; [11]) | S. Flatsedge plant response rating (smallflower flatsedge; [12]) | Plant response rating, S. Flatsedge (smallflower flatsedge; [13]) | Plant response rating, Ducksalad (duck salad; [14]) | Ducksalad plant response rating (duck salad; [11]) | Ducksalad plant response rating (duck salad; [12]) | Plant response rating, Ducksalad (duck salad; [13]) | Plant response rating, Barnyardgrass (bamyardgrass; [14]) | Barnyardgrass plant response rating (bamyardgrass; [11]) | Barnyardgrass plant response rating (bamyardgrass; [12]) | Plant response rating, Barnyardgrass (bamyardgrass; [13])
10: Blackgrass plant response rating (blackgrass; [7]) | B. signalgrass plant response rating (surinam grass; [9]) | Plant response rating, Giant foxtail (giant foxtail; [4]) | Plant response rating, Giant foxtail (giant foxtail; [5]) | Giant foxtail plant response rating (giant foxtail; [10]) | Giant foxtail plant response rating (giant foxtail; [7]) | Redroot pigweed plant response rating (pigweed; [10]) | Redroot pigweed plant response rating (pigweed; [7]) | Rape plant response rating (rape; [7])
4: Plant response rating, Soybean (soybean; [3]) | Plant response rating, Sugarbeets (sugar beet; [5]) | Sugarbeets plant response rating (sugar beet; [10])
8: Plant response rating, Blackgrass (blackgrass; [5]) | Blackgrass plant response rating (blackgrass; [6]) | B. signalgrass plant response rating (surinam grass; [1]) | Corn plant response rating (corn; [7]) | Plant response rating, Giant foxtail (giant foxtail; [2]) | Morningglory plant response rating (morningglory; [1]) | Rape plant response rating (rape; [10])
7: Velvetleaf plant response rating (velvetleaf; [7])
3: Plant response rating, Blackgrass (blackgrass; [4]) | Giant foxtail plant response rating (giant foxtail; [8]) | Plant response rating, Morningglory (morningglory; [3]) | Plant response rating, Redroot pigweed (pigweed; [3]) | Plant response rating, Rape (rape; [5]) | Soybean plant response rating (soybean; [8])

C=CC[Si](C)(C)Cn1c(=O)on(C(=O)N(c2ccc(Cl)cc2)C(C)C)c1=O [Compound 414]
7: Blackgrass plant response rating (blackgrass; [1]) | Plant response rating, Morningglory (morningglory; [3])
3: Blackgrass plant response rating (blackgrass; [6]) | Giant foxtail plant response rating (giant foxtail; [8]) | Soybean plant response rating (soybean; [1])
1: Plant response rating, B. signalgrass (surinam grass; [3]) | B. signalgrass plant response rating (surinam grass; [6])
0: Plant response rating, Bedstraw (bedstraw; [4]) | Plant response rating, Bedstraw (bedstraw; [5]) | Bedstraw plant response rating (bedstraw; [6]) | Bedstraw plant response rating (bedstraw; [7]) | Plant response rating, Blackgrass (blackgrass; [4]) | Plant response rating, Blackgrass (blackgrass; [5]) | Blackgrass plant response rating (blackgrass; [8]) | Plant response rating, B. signalgrass (surinam grass; [2]) | Plant response rating, B. signalgrass (surinam grass; [4]) | Plant response rating, B. signalgrass (surinam grass; [5]) | B. signalgrass plant response rating (surinam grass; [8]) | Plant response rating, Corn (corn; [2]) | Plant response rating, Corn (corn; [3]) | Corn plant response rating (corn; [1]) | Plant response rating, Corn (corn; [4]) | Plant response rating, Corn (corn; [5]) | Corn plant response rating (corn; [10]) | Corn plant response rating (corn; [7]) | Corn plant response rating (corn; [8]) | Plant response rating, Morningglory (morningglory; [4]) | Plant response rating, Morningglory (morningglory; [5]) | Morningglory plant response rating (morningglory; [10]) | Morningglory plant response rating (morningglory; [7]) | Plant response rating, Redroot pigweed (pigweed; [3]) | Redroot pigweed plant response rating (pigweed; [1]) | Plant response rating, Redroot pigweed (pigweed; [4]) | Plant response rating, Redroot pigweed (pigweed; [5]) | Redroot pigweed plant response rating (pigweed; [10]) | Redroot pigweed plant response rating (pigweed; [7]) | Plant response rating, Rape (rape; [3]) | Rape plant response rating (rape; [1]) | Plant response rating, Rape (rape; [4]) | Plant response rating, Rape (rape; [5]) | Rape plant response rating (rape; [10]) | Rape plant response rating (rape; [7]) | Plant response rating, Soybean (soybean; [4]) | Plant response rating, Soybean (soybean; [5]) | Soybean plant response rating (soybean; [10]) | Soybean plant response rating (soybean; [7]) | Plant response rating, Sugarbeets (sugar beet; [3]) | Sugarbeets plant response rating (sugar beet; [1]) | Plant response rating, Sugarbeets (sugar beet; [4]) | Plant response rating, Sugarbeets (sugar beet; [5]) | Sugarbeets plant response rating (sugar beet; [10]) | Sugarbeets plant response rating (sugar beet; [7]) | Plant response rating, Velvetleaf (velvetleaf; [3]) | Velvetleaf plant response rating (velvetleaf; [1]) | Plant response rating, Velvetleaf (velvetleaf; [4]) | Plant response rating, Velvetleaf (velvetleaf; [5]) | Velvetleaf plant response rating (velvetleaf; [10]) | Velvetleaf plant response rating (velvetleaf; [7]) | Plant response rating, Nutsedge (purple nutsedge; [3]) | Nutsedge plant response rating (purple nutsedge; [1]) | Plant response rating, Nutsedge (purple nutsedge; [4]) | Plant response rating, Nutsedge (purple nutsedge; [5]) | Nutsedge plant response rating (purple nutsedge; [10]) | Plant response rating, Rice (0 to 10 scale, 0 is no effect, 10 is complete control) (rice; [15]) | Rice plant response rating (0 to 10 scale, 0 is no effect, 10 is complete control) (rice; [16]) | Rice plant response rating (rice; [17]) | Rice plant response rating (rice; [18]) | Plant response rating, S. Flatsedge (0 to 10 scale, 0 is no effect, 10 is complete control) (smallflower flatsedge; [15]) | S. Flatsedge plant response rating (0 to 10 scale, 0 is no effect, 10 is complete control) (smallflower flatsedge; [16]) | S. Flatsedge plant response rating (smallflower flatsedge; [17]) | S. Flatsedge plant response rating (smallflower flatsedge; [18]) | Plant response rating, Ducksalad (0 to 10 scale, 0 is no effect, 10 is complete control) (duck salad; [15]) | Ducksalad plant response rating (0 to 10 scale, 0 is no effect, 10 is complete control) (duck salad; [16]) | Ducksalad plant response rating (duck salad; [17]) | Ducksalad plant response rating (duck salad; [18]) | Plant response rating, Barnyardgrass (0 to 10 scale, 0 is no effect, 10 is complete control) (bamyardgrass; [15]) | Barnyardgrass plant response rating (0 to 10 scale, 0 is no effect, 10 is complete control) (bamyardgrass; [16]) | Barnyardgrass plant response rating (bamyardgrass; [17]) | Barnyardgrass plant response rating (bamyardgrass; [18])
6: B. signalgrass plant response rating (surinam grass; [1]) | Plant response rating, Giant foxtail (giant foxtail; [3])
5: Plant response rating, Blackgrass (blackgrass; [3]) | B. signalgrass plant response rating (surinam grass; [9])
9: Giant foxtail plant response rating (giant foxtail; [1]) | Plant response rating, Giant foxtail (giant foxtail; [5])
8: Morningglory plant response rating (morningglory; [1])
10: Blackgrass plant response rating (blackgrass; [7]) | Giant foxtail plant response rating (giant foxtail; [10]) | Giant foxtail plant response rating (giant foxtail; [7])
2: Plant response rating, Blackgrass (blackgrass; [2]) | Plant response rating, Giant foxtail (giant foxtail; [4]) | Plant response rating, Soybean (soybean; [3])
